Assay results reported in patent US8148366B2, “Substituted pyrazolo[3,4-E][diazepin-6-5(H)ones and analogues thereof, their preparation and their use as antibacterial medicaments” (Novexel SA, priority 2008, dated 2012).
Converted amounts (≈) assume the structure as drawn.

Tested on: Pseudomonas aeruginosa (1771 Wild-type strain)
Assay: Activity in vitro, method of dilutions in liquid medium (M.I.C.)
Format: cell-based
Conditions: incubation 24 hours at 37° C., growth inhibition by transillumination; for MIC: read-out: MIC (μg/mL) 24 h (P, aerug, 1771)
Experimental: Activity in vitro, method of dilutions in liquid medium:
A series of tubes is prepared, into which the same quantity of sterile nutritive medium is distributed, increasing quantities of the product to be studied are distributed into each tube then each tube is seeded with a bacterial strain. After incubation for 24 hours in an oven at 37° C., growth inhibition is assessed by transillumination, which makes it possible to determine the minimum inhibitory concentrations (M.I.C.) expressed in μg/ml.
Tests are thus carried out with the products of Examples 1 to 19 in comparison with the products of Examples 11 of the Application WO 04/052891 and 18 of the Application WO 02/100860.

Compound	MIC [µg/mL]	MIC (μg/mL) 24 h (P, aerug, 1771) [µg/mL]
N=C(N)NC[C@@H]1c2[nH]ncc2[C@H]2CN1C(=O)N2OS(=O)(=O)O (relative stereo) [Ex13, trans 8-(guanidino-methyl)-4,8-dihydro-5-(sulphooxy)-4,7-methano-7H-pyrazolo[3,4-e][1,3]diazepin-6(5H)-one]	1 (≈ 3.02 µM)	–
CC(N)CCNC(=O)n1cc2c(n1)[C@@H](CN)N1C[C@H]2N(OS(=O)(=O)O)C1=O (relative stereo) [Ex6, trans 8-(aminomethyl)-2-[(3-amino-butyl)carbamoyl]-4,8-dihydro-5-(sulphooxy)-4,7-methano-7H-pyrazolo[3,4-e][1,3] diazepin-6(5H)-one]	4 (≈ 9.92 µM)	–
NC[C@@H]1c2nn(C(=O)N3CCNCC3)cc2[C@H]2CN1C(=O)N2OS(=O)(=O)O (relative stereo) [Ex2, trans 8-(aminomethyl)-2-(4-piperazine-1-carbonyl)-4,8-dihydro-5-(sulphooxy)-4,7-methano-7H-pyrazolo[3,4-e][1,3]diazepin-6(5H)-one]	–	0.5 (≈ 1.25 µM)
CCNC(=O)n1ncc2c1[C@@H](CNC(=N)N)N1C[C@H]2N(OS(=O)(=O)O)C1=O (relative stereo) [Ex15, trans 8-(guanidino-methyl)-1-ethylcarbamoyl-4,8-dihydro-5-(sulphooxy)-4,7-methano-7H-pyrazolo[3,4-e][1,3]diazepin-6(5H)-one]	> 32	–
N=C(N)n1ncc2c1[C@@H](CN)N1C[C@H]2N(OS(=O)(=O)O)C1=O (relative stereo) [Ex9]	–	0.5 (≈ 1.51 µM)
NC[C@@H]1c2nn(CCC(N)C(=O)O)cc2[C@H]2CN1C(=O)N2OS(=O)(=O)O (relative stereo) [Ex12, trans 8-(amino-methyl)-2-(3-amino-3-carboxy-propyl)-4,8-dihydro-5-(sulphooxy)-4,7-methano-7H-pyrazolo[3,4-e][1,3] diazepin-6(5H)-one]	0.5 (≈ 1.28 µM)	–
NC[C@@H]1c2nn(C(=O)N3CCCC3)cc2[C@H]2CN1C(=O)N2OS(=O)(=O)O (relative stereo) [Ex4, trans 8-(aminomethyl)-4,8-dihydro-2-(pyrrolidine-1-carbonyl)-5-(sulphooxy)-4,7-methano-7H-pyrazolo[3,4-e][1,3]diazepin-6(5H)-one]	8 (≈ 20.7 µM)	–
CN(C)CCNC(=O)n1cc2c(n1)[C@@H](CN)N1C[C@H]2N(OS(=O)(=O)O)C1=O (relative stereo) [Ex3, trans 8-(aminomethyl)-4,8-dihydro-2-(2-dimethylaminoethylcarbamoyl)-5-(sulphooxy)-4,7-methano-7H-pyrazolo[3,4-e][1,3] diazepin-6(5H)-one]	1 (≈ 2.48 µM)	–
CCNC(=O)n1cc2c(n1)[C@@H](CNC(=N)N)N1C[C@H]2N(OS(=O)(=O)O)C1=O (relative stereo) [Ex16, trans 8-(guanidino-methyl)-2-ethylcarbamoyl-4,8-dihydro-5-(sulphooxy)-4,7-methano-7H-pyrazolo[3,4-e][1,3] diazepin-6(5H)-one]	16 (≈ 39.8 µM)	–
trans 8-(aminomethyl)-2-amino-carbamoyl-4,8-dihydro-5-(sulphooxy)-4,7-methano-7H-pyrazolo[3,4-e][1,3]diazepin-6(5H)-one [Ex19]	–	0.5
N=C(N)NC[C@@H]1c2nn(C(N)=O)cc2[C@H]2CN1C(=O)N2OS(=O)(=O)O (relative stereo) [Ex17, trans 8-(guanidino-methyl)-2-carbamoyl-4,8-dihydro-5-(sulphooxy)-4,7-methano-7H-pyrazolo[3,4-e][1,3]diazepin-6(5H)-one]	1 (≈ 2.67 µM)	–
NC[C@@H]1c2nn(C(=O)NCC(N)=O)cc2[C@H]2CN1C(=O)N2OS(=O)(=O)O (relative stereo) [Ex7, trans 8-(aminomethyl)-2-(carbamoylmethyl-carbamoyl)-4,8-dihydro-5-(sulphooxy)-4,7-methano-7H-pyrazolo[3,4-e][1,3]diazepin-6(5H)-one]	1 (≈ 2.57 µM)	–
Cn1ncc2c1[C@@H](CN)N1C[C@H]2N(OC(F)(F)C(=O)O)C1=O (relative stereo) [Ex18, trans 8-(amino-methyl)-4,8-dihydro-1-methyl-6-oxo-5-(carboxy-difluoro-methoxy)-4,7-methano-7H-pyrazolo[3,4-e][1,3] diazepin-6(5H)-one]	–	0.5 (≈ 1.58 µM)
NCCCNC(=O)n1cc2c(n1)[C@@H](CN)N1C[C@H]2N(OS(=O)(=O)O)C1=O (relative stereo) [Ex5, trans 8-(aminomethyl)-2-[(3-amino-propyl)carbamoyl]-4,8-dihydro-5-(sulphooxy)-4,7-methano-7H-pyrazolo[3,4-e][1,3] diazepin-6(5H)-one]	0.5 (≈ 1.28 µM)	–
NC[C@@H]1c2nn(C(=O)C3CCNCC3)cc2[C@H]2CN1C(=O)N2OS(=O)(=O)O (relative stereo) [Ex11, trans-8-(amino-methyl)-4,8-dihydro-2-(piperidine-4-carbonyl)-5-(sulphooxy)-4,7-methano-7H-pyrazolo[3,4-e][1,3]diazepin-6(5H)-one]	0.25 (≈ 0.624 µM)	–
N=C(N)n1cc2c(n1)[C@@H](CN)N1C[C@H]2N(OS(=O)(=O)O)C1=O (relative stereo) [Ex10, trans 8-(aminomethyl)-2-(carbamimidoyl)-4,8-dihydro-5-(sulphooxy)-4,7-methano-7H-pyrazolo[3,4-e] [1,3]diazepin-6(5H)-one]	0.5 (≈ 1.51 µM)	–
